Assay results reported in patent US20250352464A1, “TOPICAL COMPOSITIONS AND METHODS FOR TREATING DERMATOPOROSIS” (GALDERMA HOLDING SA, priority 2023, published 2025).

Legend:
human keratinocytes = assay: in vitro gene expression analysis (RNA sequencing) in keratinocytes; format: cell-based; details: 72 hrs, mandelic acid 0.05%
Excerpt: Genes were annotated using the Reactome Database.

[1] = system: human primary adult dermal fibroblasts and human primary adult dermal keratinocytes; details: 24 h
Procedure: To determine suitable dosing of Centella asiatica extract and mandelic acid, human primary adult dermal fibroblasts and human primary adult dermal keratinocytes were purchased from ZenBio (https://www.zen-bio.com/, Durham, NC) and plated as per the provided ZenBio protocols in the recommended media from ZenBio.
Approximately 10k cells were plated per well in each well of a 96-well plate. […] Centella asiatica extract concentrations ranged from 0.00025% to 0.25%, in 2× steps. […] After 24 hours of treatment, an alamar blue assay was performed. The plate was then read in an Envision plate reader with 560 nm excitation and 590 nm emission filters to determine cell viability.

[2] = human keratinocytes grown to confluence, Centella asiatica extract 0.005%, combination same concentrations, vs untreated cells

## O=C(O)C(O)c1ccccc1 (stereo not drawn) [Mandelic Acid, mandelic acid]
Human keratinocytes; [2]
  Modulation of Gene Expression (Fold Change): CEBPB: −2.45 Fold Change
  Modulation of Gene Expression (Fold Change): HIST1H2BD: 0.55 Fold Change
  Modulation of Gene Expression (Fold Change): HIST1H2BG: 0.45 Fold Change
  Modulation of Gene Expression (Fold Change): HIST1H3D: −0.23 Fold Change
  Modulation of Gene Expression (Fold Change): HIST1H4E: 0.60 Fold Change
  Modulation of Gene Expression (Fold Change): HIST1H4H: −0.54 Fold Change
  Modulation of Gene Expression (Fold Change): IL1B: 1.73 Fold Change
  Modulation of Gene Expression (Fold Change): IL8: −1.46 Fold Change
  Modulation of Gene Expression (Fold Change): TNF: −2.69 Fold Change
  Modulation of Gene Expression (Fold Change): UBB: −3.87 Fold Change
  Modulation of Gene Expression (Fold Change): UBC: −1.09 Fold Change
  Modulation of Gene Expression (Fold Change): UBE2C: 0.51 Fold Change
Human keratinocytes; human keratinocytes, Centella 0.005%, FIG. 5
  expression of p15 (CDKN2B): upregulate
Human keratinocytes; human keratinocytes, Centella 0.005%, FIGS. 4A-4G
  pro-inflammatory gene expression (MMP2, HSPA8, CSF2RA, CXCL1, IL2RB, NFKBIA, PTG52): significantly downregulated
[1]
  highest concentration not resulting in cytotoxicity: 0.05%
